Assay results taken from patent US9533985B2, “Sulfonamide derivative and medicinal use thereof” (EA Pharma Co., Ltd., priority 2012, dated 2017).

Target: α4β7 integrin (Homo sapiens (Human), UniProt P13612+P26010)
Assay: MAdCAM-1/α4β7 integrin binding inhibitory activity evaluation test in the presence of serum (2)
Assay type: cell-based
Details: RPMI-8866 cells binding to mouse MAdCAM-1/Fc, same manner as Test (3), read-out: α4β7 Rank of activity with serum added
Procedure, shortened: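 Adhesion of human RPMI-8866 B cells (α4β7-expressing) to plate-bound recombinant mouse MAdCAM-1/Fc in DMEM binding buffer with 4 mM MnCl2 and 50% final human serum, 15–60 min at 30 °C. Bound cells quantified by LDH activity (A490) after lysis; IC50 relative to no-compound binding, duplicate.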

Sequence of α4β7 integrin (P13612 34-1032): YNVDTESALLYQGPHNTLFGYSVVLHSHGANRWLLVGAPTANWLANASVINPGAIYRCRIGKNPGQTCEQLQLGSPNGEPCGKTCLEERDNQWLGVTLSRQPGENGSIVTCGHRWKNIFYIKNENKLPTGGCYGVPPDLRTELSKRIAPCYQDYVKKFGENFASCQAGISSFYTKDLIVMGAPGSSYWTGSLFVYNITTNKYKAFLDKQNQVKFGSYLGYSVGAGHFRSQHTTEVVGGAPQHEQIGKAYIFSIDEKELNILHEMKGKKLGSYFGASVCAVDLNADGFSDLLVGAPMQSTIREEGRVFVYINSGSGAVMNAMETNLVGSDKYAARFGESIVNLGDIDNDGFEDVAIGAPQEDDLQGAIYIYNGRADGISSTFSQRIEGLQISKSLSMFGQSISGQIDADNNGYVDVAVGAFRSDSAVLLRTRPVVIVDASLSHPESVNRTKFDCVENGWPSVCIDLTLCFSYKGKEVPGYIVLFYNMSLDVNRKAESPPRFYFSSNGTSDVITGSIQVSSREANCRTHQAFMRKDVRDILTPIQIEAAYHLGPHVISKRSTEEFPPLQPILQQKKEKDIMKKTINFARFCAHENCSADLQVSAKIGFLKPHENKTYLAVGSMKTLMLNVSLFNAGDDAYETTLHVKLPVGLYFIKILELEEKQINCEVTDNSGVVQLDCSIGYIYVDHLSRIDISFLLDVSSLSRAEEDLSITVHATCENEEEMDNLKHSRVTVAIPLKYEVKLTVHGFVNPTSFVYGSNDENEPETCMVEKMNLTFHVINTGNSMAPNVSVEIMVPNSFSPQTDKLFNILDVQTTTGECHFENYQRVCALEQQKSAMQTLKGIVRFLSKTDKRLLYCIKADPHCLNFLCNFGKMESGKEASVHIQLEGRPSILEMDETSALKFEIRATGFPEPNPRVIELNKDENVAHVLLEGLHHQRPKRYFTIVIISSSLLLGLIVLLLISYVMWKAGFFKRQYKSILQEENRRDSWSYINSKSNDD
Sequence of α4β7 integrin (P26010 20-798): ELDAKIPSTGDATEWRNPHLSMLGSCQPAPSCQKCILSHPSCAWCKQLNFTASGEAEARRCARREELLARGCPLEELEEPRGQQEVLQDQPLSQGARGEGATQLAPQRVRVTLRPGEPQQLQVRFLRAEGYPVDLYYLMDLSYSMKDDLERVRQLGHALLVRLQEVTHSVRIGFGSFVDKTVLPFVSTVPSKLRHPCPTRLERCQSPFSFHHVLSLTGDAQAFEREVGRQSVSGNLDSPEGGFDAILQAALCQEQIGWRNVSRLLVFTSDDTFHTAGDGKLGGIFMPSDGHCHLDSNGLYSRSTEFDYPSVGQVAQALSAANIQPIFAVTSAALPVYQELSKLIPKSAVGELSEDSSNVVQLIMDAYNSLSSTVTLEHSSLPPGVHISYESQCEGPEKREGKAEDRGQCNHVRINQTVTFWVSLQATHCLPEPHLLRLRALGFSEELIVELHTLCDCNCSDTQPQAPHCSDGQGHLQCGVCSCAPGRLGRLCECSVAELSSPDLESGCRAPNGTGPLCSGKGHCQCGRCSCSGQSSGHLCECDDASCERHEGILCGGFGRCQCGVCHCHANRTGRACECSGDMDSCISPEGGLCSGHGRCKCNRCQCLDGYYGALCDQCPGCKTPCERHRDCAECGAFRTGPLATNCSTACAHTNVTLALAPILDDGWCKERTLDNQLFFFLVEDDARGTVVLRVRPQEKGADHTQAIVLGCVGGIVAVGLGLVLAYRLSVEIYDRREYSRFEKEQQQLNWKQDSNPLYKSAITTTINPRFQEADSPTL

IC50, ≤ 10 nM:
CCOc1cc(-c2ncccn2)ccc1S(=O)(=O)Nc1cc(F)c(C(=O)N[C@@H](Cc2ccc(-n3c(=O)c4ccncc4n(C)c3=O)cn2)C(=O)O)c(F)c1 [Example 231, N-(4-{[(2-Ethoxy-4-pyrimidin-2-ylphenyl)sulfonyl]amino}-2,6-difluorobenzoyl)-3-[5-(1-methyl-2,4-dioxo-1,4-dihydropyrido[3,4-d]pyrimidin-3(2H)-yl)pyridin-2-yl]-L-alanine]

IC50, 50 to 200 nM:
Cn1c(=O)n(-c2ccc(C[C@H](NC(=O)c3cc(F)c(NS(=O)(=O)c4ccc(C(=O)C5CC5)cc4)cc3F)C(=O)O)nc2)c(=O)c2ccncc21 [Example 223, N-[4-({[4-(Cyclopropylcarbonyl)phenyl]sulfonyl}amino)-2,5-difluorobenzoyl]-3-[5-(1-methyl-2,4-dioxo-1,4-dihydropyrido[3,4-d]pyrimidin-3(2H)-yl)pyridin-2-yl]-L-alanine]
Cc1cc(-c2ccc(S(=O)(=O)Nc3cc(F)c(C(=O)N[C@@H](Cc4ccc(-n5c(=O)c6ccncc6n(C)c5=O)cn4)C(=O)O)cc3F)nc2)cc(C)n1 [Example 227, N-(4-{[(2′,6′-Dimethyl-3,4′-bipyridin-6-yl)sulfonyl]amino}-2,5-difluorobenzoyl)-3-[5-(1-methyl-2,4-dioxo-1,4-dihydropyrido[3,4-d]pyrimidin-3(2H)-yl)pyridin-2-yl]-L-alanine]
COc1ncc(-c2ccc(S(=O)(=O)Nc3cc(F)c(C(=O)N[C@@H](Cc4ccc(-n5c(=O)c6ccncc6n(C)c5=O)cn4)C(=O)O)cc3F)cc2)cn1 [Example 228, N-[2,5-Difluoro-4-({[4-(2-methoxypyrimidin-5-yl)phenyl]sulfonyl}amino)benzoyl]-3-[5-(1-methyl-2,4-dioxo-1,4-dihydropyrido[3,4-d]pyrimidin-3(2H)-yl)pyridin-2-yl]-L-alanine]
CCc1ncc(-c2ccc(S(=O)(=O)Nc3cc(F)c(C(=O)N[C@@H](Cc4ccc(-n5c(=O)c6ccncc6n(C)c5=O)cn4)C(=O)O)cc3F)cc2)cn1 [Example 229, N-[4-({[4-(2-Ethylpyrimidin-5-yl)phenyl]sulfonyl}amino)-2,5-difluorobenzoyl]-3-[5-(1-methyl-2,4-dioxo-1,4-dihydropyrido[3,4-d]pyrimidin-3(2H)-yl)pyridin-2-yl]-L-alanine]
Cn1c(=O)n(-c2ccc(C[C@H](NC(=O)c3cc(F)c(NS(=O)(=O)c4ccc(-c5ncccn5)cn4)cc3F)C(=O)O)nc2)c(=O)c2ncccc21 [Example 230, N-(2,5-Difluoro-4-{[(5-pyrimidin-2-ylpyridin-2-yl)sulfonyl]amino}benzoyl)-3-[5-(1-methyl-2,4-dioxo-1,4-dihydropyrido[3,2-d]pyrimidin-3(2H)-yl)pyridin-2-yl]-L-alanine]

IC50, 10 to 50 nM:
Cn1c(=O)n(-c2ccc(C[C@H](NC(=O)c3cc(F)c(NS(=O)(=O)c4ccc(-n5cncn5)cc4)cc3F)C(=O)O)nc2)c(=O)c2ccncc21 [Example 224, N-[2,5-Difluoro-4-({[4-(1H-1,2,4-triazol-1-yl)phenyl]sulfonyl}amino)benzoyl]-3-[5-(1-methyl-2,4-dioxo-1,4-dihydropyrido[3,4-d]pyrimidin-3(2H)-yl)pyridin-2-yl]-L-alanine]
Cn1c(=O)n(-c2ccc(C[C@H](NC(=O)c3cc(F)c(NS(=O)(=O)c4ccc(-n5cncn5)cc4)cc3F)C(=O)O)cc2)c(=O)c2ccncc21 [Example 225, N-[2,5-Difluoro-4-({[4-(1H-1,2,4-triazol-1-yl)phenyl]sulfonyl}amino)benzoyl]-4-(1-methyl-2,4-dioxo-1,4-dihydropyrido[3,4-d]pyrimidin-3(2H)-yl)-L-phenylalanine]
Cn1c(=O)n(-c2ccc(C[C@H](NC(=O)c3cc(F)c(NS(=O)(=O)c4ccc(-n5ccnn5)cc4)cc3F)C(=O)O)nc2)c(=O)c2ccncc21 [Example 226, N-[2,5-Difluoro-4-({[4-(1H-1,2,3-triazol-1-yl)phenyl]sulfonyl}amino)benzoyl]-3-[5-(1-methyl-2,4-dioxo-1,4-dihydropyrido[3,4-d]pyrimidin-3(2H)-yl)pyridin-2-yl]-L-alanine]
